Results on ten molecules are retold here after patent US11091511B2, “Panaxdiol-type ginsenoside derivative, preparation method therefor and use thereof” (ARMY MEDICAL UNIVERSITY, priority 2016, dated 2021).

One data set has as its system RAW264.7 cells. The data set is described as follows: RAW264.7 cell survival rate by CCK8 method. The data set is classed as cell-based, mouse. To be noted: compound 10 prnol/L, 0.1% DMSO, CCK8, x ± s, n = 3, normal saline control = 1. The essentials: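 Mouse macrophage RAW264.7 cells exposed to compounds at 10 […] in medium containing 0.1% DMSO final, alongside a 0.1% DMSO saline control. Survival measured by CCK8, given as x±s, with groups compared by one-way ANOVA (p<0.05).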
A general note: Tetrazolium assays rely on reduction of a dye to a coloured formazan, in cell work by metabolically active cells.

The test system of data set [1] is apoE−/− mice. Put plainly: Atherosclerotic plaque area to total aortic area in apoE-/- mice on high-fat diet (Sudan IV staining). The data set is classed as in vivo, mouse. The conditions noted are these: intragastric 15 weeks, compounds 30 mg/(kg·d), simvastatin 10 mg/(kg·d), x ± s, n = 5, saline control 14.67 ± 3.58. The essentials:
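Male apoE−/− mice, 10 weeks old, ate a high-fat diet (0.15% cholesterol, 21% lard) for 25 weeks and received compounds intragastrically at 30 mg/(kg·d) for 15 weeks from week 10 (n=5). Aortas from root to abdominal bifurcation were formalin-fixed and Sudan IV-stained. Lesion area was expressed as percent of total aortic area.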

Data set [2] deals with apoE−/− mice. Put plainly: Blood lipids (LDL-C, HDL-C) in apoE-/- mice on high-fat diet. The data set is classed as in vivo, mouse. The conditions noted are these: apoE-/- mice serum, intragastric 15 weeks, compounds 30 mg/(kg·d), simvastatin 10 mg/(kg·d), x ± s; for HDL-C: n = 5, saline control 3.74 ± 0.62; for LDL-C: n = 5, saline control 7.33 ± 1.03. An outline of the steps:
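Male apoE−/− mice (ten weeks old) on high-fat diet (0.15% cholesterol, 21% lard) for 25 weeks; from week 10, compounds given intragastrically at 30 mg/(kg·d) for 15 weeks (n=5). Serum TC, LDL-C and HDL-C measured on an automatic biochemical analyzer; one-way ANOVA, p<0.05.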

A further data set relates to TNF-α. Put plainly: Local TNF-α level in the arteries of apoE-/- mice (Millipore liquid phase chip). It is filed as in vivo, mouse. The conditions noted are these: high-fat diet, intragastric 15 weeks, compounds 30 mg/(kg·d), simvastatin 10 mg/(kg·d), x ± s, n = 5, saline control 25.58 ± 6.44. The essentials:
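Male apoE−/− mice on a high-fat diet (0.15% cholesterol, 21% lard) for 25 weeks received compound at 30 mg/(kg·d) intragastrically from week 10 for 15 weeks (n=5). Arterial TNF-α was then measured with a magnetic bead cytokine panel. Groups were compared by one-way ANOVA.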

The test system of data set [3] is RAW264.7 cell-derived foam cells. Put plainly: Formation of RAW264.7 cell-derived foam cells (ox-LDL, oil red O, absorbance 490 nm). It is filed as cell-based, mouse. To be noted: 48 hours, model group = 100%, x ± s, n = 3. The essentials: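 RAW264.7 foam cells, induced with 60 mg/L ox-LDL for 48 h, were treated 48 h with compound at 10 or 30 μmol/L in saline, in triplicate wells. Lipid was stained with oil red O, extracted in isopropanol and read at 490 nm. Values are cell-number-corrected lipid content as % of the model group.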

Marks after values point to notes of the source that are not given here.

With `COC(=O)[C@H](CC(C)C)NCCC[C@](C)(OC(C)=O)C1CC[C@]2(C)[C@@H]1C(OC(C)=O)CC1[C@@]3(C)CC[C@H](OC(C)=O)C(C)(C)C3CC[C@]12C` (stereo partly shown) [Compound 19], in the data set with RAW264.7 cells, the “Cell Survival Rate” value was 0.91 ± 0.07. Also, in the data set on apoE−/− mice [1], the “Plaque area/total aorta area (%)” value is 8.34 ± 2.41 ^a %. Besides, in the data set on apoE−/− mice [2], the HDL-C is 5.13 ± 0.83 ^a mmol/L and the LDL-C was 4.62 ± 1.34 ^a mmol/L. Also, in the data set with TNF-α, the “TNF-α level (ng/g)” value is recorded as 11.23 ± 3.69 ^a ng/g. Besides, the “Foam cell formation (%)” value in data set [3] (dose 10 μmol/L) was 63 ± 18 ^a %. The “Foam cell formation (%)” value in data set [3] (dose 30 μmol/L) is reported as 43 ± 9 ^a %.

Take `COC(=O)CCC(NCCC[C@](C)(OC(C)=O)C1CC[C@]2(C)[C@@H]1C(OC(C)=O)CC1[C@@]3(C)CC[C@H](OC(C)=O)C(C)(C)C3CC[C@]12C)C(=O)OC` (stereo partly shown) [Compound 23]: in the data set with RAW264.7 cells, the “Cell Survival Rate” value stood at 1.01 ± 0.09. Further, in the data set on apoE−/− mice [1], the “Plaque area/total aorta area (%)” value is recorded as 8.64 ± 2.46 ^a %. In addition, in the data set on apoE−/− mice [2], the HDL-C is listed as 5.39 ± 0.61 ^a mmol/L and the LDL-C was 4.28 ± 1.46 ^a mmol/L. Further, the “TNF-α level (ng/g)” value with TNF-α is 12.61 ± 374^a ng/g. In addition, the “Foam cell formation (%)” value in data set [3] (dose 10 μmol/L) is reported as 68 ± 18 ^a %. The “Foam cell formation (%)” value in data set [3] (dose 30 μmol/L) is 47 ± 19 ^a %.

As to `COC(=O)[C@H](CC(C)C)NCCC[C@](C)(O[C@H]1O[C@H](COC(C)=O)[C@@H](OC(C)=O)[C@H](OC(C)=O)[C@H]1OC(C)=O)C1CC[C@]2(C)[C@@H]1C(OC(C)=O)CC1[C@@]3(C)CC[C@H](OC(C)=O)C(C)(C)C3CC[C@]12C` (stereo partly shown) [Compound 4], the “Cell Survival Rate” value with RAW264.7 cells came out at 0.84 ± 0.02. In addition, in the data set with apoE−/− mice [1], the “Plaque area/total aorta area (%)” value is given as 9.52 ± 4.21 ^a %. Further, the HDL-C in the data set with apoE−/− mice [2] was 5.48 ± 0.61 ^a mmol/L. The LDL-C in the data set with apoE−/− mice [2] is recorded as 4.62 ± 1.58 ^a mmol/L. In the data set with TNF-α, the “TNF-α level (ng/g)” value is listed as 11.04 ± 3.68 ^a ng/g. The “Foam cell formation (%)” value is 74 ± 15 ^a % in data set [3] (dose 10 μmol/L) and 54 ± 12 ^a % in data set [3] (dose 30 μmol/L).

Regarding `CCOC(=O)CCNCCC[C@](C)(OC(C)=O)C1CC[C@]2(C)[C@@H]1C(OC(C)=O)CC1[C@@]3(C)CC[C@H](OC(C)=O)C(C)(C)C3CC[C@]12C` (stereo partly shown) [Compound 25], in the data set on RAW264.7 cells, the “Cell Survival Rate” value came out at 0.98 ± 0.07. Besides, in the data set on apoE−/− mice [1], the “Plaque area/total aorta area (%)” value is on record as 8.33 ± 2.44 ^a %. In the data set on apoE−/− mice [2], the HDL-C is 5.14 ± 0.87 ^a mmol/L and the LDL-C is given as 4.82 ± 1.54 ^a mmol/L. Besides, the “TNF-α level (ng/g)” value with TNF-α is recorded as 11.65 ± 5.45 ^a ng/g. Also, the “Foam cell formation (%)” value in data set [3] (dose 10 μmol/L) is 62 ± 18 ^a %. Besides, the “Foam cell formation (%)” value in data set [3] (dose 30 μmol/L) is listed as 44 ± 15 ^a %.

In the case of `COC(=O)[C@@H](Cc1ccc(O)cc1)NCCC[C@](C)(OC(C)=O)C1CC[C@]2(C)[C@@H]1C(OC(C)=O)CC1[C@@]3(C)CC[C@H](OC(C)=O)C(C)(C)C3CC[C@]12C` (stereo partly shown) [Compound 28], the “Cell Survival Rate” value in the data set with RAW264.7 cells is reported as 0.89 ± 0.04. For the same molecule, the “Plaque area/total aorta area (%)” value in the data set on apoE−/− mice [1] is 8.18 ± 2.89 ^a %. Moreover, the HDL-C with apoE−/− mice [2] was 5.55 ± 0.63 ^a mmol/L. Moreover, in the data set on apoE−/− mice [2], the LDL-C is reported as 4.59 ± 1.62 ^a mmol/L. Also, the “TNF-α level (ng/g)” value in the data set with TNF-α is listed as 11.84 ± 2.91 ^a ng/g. In addition, the “Foam cell formation (%)” value was 63 ± 11 ^a % in data set [3] (dose 10 μmol/L) and 45 ± 16 ^a % in data set [3] (dose 30 μmol/L).

With `CC(=O)OC[C@H]1O[C@H](O[C@@](C)(CCC=C(C)C)C2CC[C@]3(C)[C@@H]2C(OC(C)=O)CC2[C@@]4(C)CC[C@H](OC(C)=O)C(C)(C)C4CC[C@]23C)[C@H](OC(C)=O)[C@@H](OC(C)=O)[C@@H]1OC(C)=O` (stereo partly shown) [Compound 1], the “Cell Survival Rate” value in the data set with RAW264.7 cells is 0.65 ± 0.07 ^a. The “Plaque area/total aorta area (%)” value with apoE−/− mice [1] was 10.65 ± 2.62 ^a %. For the same molecule, in the data set with apoE−/− mice [2], the HDL-C is reported as 4.55 ± 0.86 ^a mmol/L and the LDL-C was determined as 6.39 ± 1.09 mmol/L. For the same molecule, the “TNF-α level (ng/g)” value in the data set on TNF-α was 19.41 ± 3.81 ^a ng/g. Besides, the “Foam cell formation (%)” value in data set [3] (dose 10 μmol/L) was 83 ± 12%. Also, in data set [3] (dose 30 μmol/L), the “Foam cell formation (%)” value is 65 ± 18 ^a %.

In the case of `CC(=O)OC1CC2[C@@]3(C)CC[C@H](OC(C)=O)C(C)(C)C3CC[C@@]2(C)[C@]2(C)CCC([C@](C)(CCC=O)OC(C)=O)[C@@H]12` (stereo partly shown) [Compound 18], the “Cell Survival Rate” value in the data set on RAW264.7 cells amounted to 0.85 ± 0.08. The “Plaque area/total aorta area (%)” value in the data set on apoE−/− mice [1] is 9.15 ± 2.85 ^a %. Besides, in the data set with apoE−/− mice [2], the HDL-C is given as 4.72 ± 0.91 ^a mmol/L and the LDL-C was determined as 6.15 ± 1.28 mmol/L. For the same molecule, in the data set with TNF-α, the “TNF-α level (ng/g)” value is given as 16.65 ± 4.57 ^a ng/g. Also, the “Foam cell formation (%)” value in data set [3] (dose 10 μmol/L) came out at 84 ± 16%. Besides, the “Foam cell formation (%)” value in data set [3] (dose 30 μmol/L) is 76 ± 14 ^a %.

With `COC(=O)[C@H](Cc1ccccc1)NCCC[C@](C)(OC(C)=O)C1CC[C@]2(C)[C@@H]1C(OC(C)=O)CC1[C@@]3(C)CC[C@H](OC(C)=O)C(C)(C)C3CC[C@]12C` (stereo partly shown) [Compound 27], the “Cell Survival Rate” value with RAW264.7 cells came to 0.87 ± 0.04. The “Plaque area/total aorta area (%)” value with apoE−/− mice [1] is on record as 10.65 ± 3.82 ^a %. In the data set with apoE−/− mice [2], the HDL-C is recorded as 4.37 ± 0.56 ^a mmol/L and the LDL-C is 5.55 ± 1.06 ^a mmol/L. For the same molecule, in the data set with TNF-α, the “TNF-α level (ng/g)” value is listed as 17.95 ± 2.15 ^a ng/g. Moreover, the “Foam cell formation (%)” value in data set [3] (dose 10 μmol/L) is listed as 76 ± 12 ^a %. Further, the “Foam cell formation (%)” value in data set [3] (dose 30 μmol/L) is recorded as 65 ± 18 ^a %.

As to `COC(=O)[C@H](Cc1c[nH]cn1)NCCC[C@](C)(O[C@H]1O[C@H](COC(C)=O)[C@@H](OC(C)=O)[C@H](OC(C)=O)[C@H]1OC(C)=O)C1CC[C@]2(C)[C@@H]1C(OC(C)=O)CC1[C@@]3(C)CC[C@H](OC(C)=O)C(C)(C)C3CC[C@]12C` (stereo partly shown) [Compound 14], the “Cell Survival Rate” value in the data set on RAW264.7 cells is given as 0.83 ± 0.06. For the same molecule, in the data set on apoE−/− mice [1], the “Plaque area/total aorta area (%)” value was 9.34 ± 3.01 ^a %. For the same molecule, in the data set with apoE−/− mice [2], the HDL-C is 4.39 ± 0.59 ^a mmol/L and the LDL-C is listed as 5.58 ± 1.11 ^a mmol/L. In the data set on TNF-α, the “TNF-α level (ng/g)” value is 16.92 ± 5.04 ^a ng/g. In data set [3] (dose 10 μmol/L), the “Foam cell formation (%)” value is 78 ± 18 ^a %. Moreover, in data set [3] (dose 30 μmol/L), the “Foam cell formation (%)” value is recorded as 66 ± 16 ^a %.

As for `COC(=O)CC[C@H](NCCC[C@](C)(O[C@H]1O[C@H](COC(C)=O)[C@@H](OC(C)=O)[C@H](OC(C)=O)[C@H]1OC(C)=O)C1CC[C@]2(C)[C@@H]1C(OC(C)=O)CC1[C@@]3(C)CC[C@H](OC(C)=O)C(C)(C)C3CC[C@]12C)C(=O)OC` (stereo partly shown) [Compound 8], the “Cell Survival Rate” value with RAW264.7 cells is 0.82 ± 0.06. Further, in the data set on apoE−/− mice [1], the “Plaque area/total aorta area (%)” value is on record as 9.31 ± 3.58 ^a %. Besides, in the data set on apoE−/− mice [2], the HDL-C is given as 5.63 ± 0.84 ^a mmol/L and the LDL-C was 4.34 ± 1.19 ^a mmol/L. Also, the “TNF-α level (ng/g)” value in the data set with TNF-α was 12.67 ± 3.11 ^a ng/g. Also, the “Foam cell formation (%)” value in data set [3] (dose 10 μmol/L) is 73 ± 16 ^a %. Also, the “Foam cell formation (%)” value in data set [3] (dose 30 μmol/L) is 51 ± 17 ^a %.
